Data as given in ChEMBL document CHEMBL6114991, “Design, synthesis, and biological evaluation of novel quinoline carboxylic acid based styryl/alkyne hybrid molecule as a potent anti-adipogenic and antidyslipidemic agent via activation of Wnt/β-catenin pathway” (Eur J Med Chem, 2025).
Activity calls are given as the source filed them. No cut-off for these calls is given here.

Tests used:
[1] = MRT in Golden Syrian hamster at 100 mg/kg, po measured upto 24 hrs by LC-MS/MS analysis; assay type: ADME, organism-based, Mesocricetus auratus; conditions: in vivo
[2] = Toxicity in Golden Syrian hamster assessed as reduction in TC level in serum at 100 mg/kg, po administered for 7 days; assay type: organism-based, Mesocricetus auratus; conditions: in vivo, 168 h, time 7 day
[3] = system: 3T3-L1; experiment: Inhibition of adipogenesis in mouse 3T3-L1 cells assessed as downregulation of FABP4 expression at 10 uM measured at upto 7 days by immunoblotting analysis; assay type: functional, cell-based; conditions: time <= 7.0 day
[4] = system: 3T3-L1; experiment: Inhibition of adipogenesis in mouse 3T3-L1 cells assessed as downregulation of CEBPalpha expression at 10 uM measured at upto 3 days by immunoblotting analysis; assay type: functional, cell-based; conditions: time <= 3.0 day
[5] = system: 3T3-L1; experiment: Anti-adipogenic activity in mouse 3T3-L1 cells assessed as reduction in lipid accumulation at 10 uM measured at upto 3 days; assay type: functional, cell-based; conditions: time <= 3.0 day
[6] = system: 3T3-L1; experiment: […] of Wnt/beta-catenin signalling in mouse 3T3-L1 cells assessed as increase in beta-catenin level at 10 uM by immunoblotting analysis; assay type: cell-based
[7] = Toxicity in Golden Syrian hamster assessed as reduction in TG level in serum at 100 mg/kg, po administered for 7 days; assay type: organism-based, Mesocricetus auratus; conditions: in vivo, 168 h, time 7 day
[8] = Volume of distribution in Golden Syrian hamster at 100 mg/kg, po measured upto 24 hrs by LC-MS/MS analysis; assay type: ADME, organism-based, Mesocricetus auratus; conditions: in vivo
[9] = system: Syrian golden hamster; experiment: Anti-dyslipidemic activity in HFD-induced Golden Syrian hamster model assessed as decrease in PPARgamma level at 100 mg/kg, po administered for 7 days by Western blot analysis; assay type: functional, organism-based; conditions: Mesocricetus auratus, time 7.0 day
[10] = AUC in Golden Syrian hamster at 100 mg/kg, po measured upto 24 hrs by LC-MS/MS analysis; assay type: ADME, organism-based, Mesocricetus auratus; conditions: in vivo
[11] = system: 3T3-L1; experiment: Anti-adipogenic activity in mouse 3T3-L1 cells assessed as reduction in lipid accumulation at 10 uM measured at upto 5 days; assay type: functional, cell-based; conditions: time <= 5.0 day
[12] = system: 3T3-L1; experiment: Cytotoxicity against mouse 3T3-L1 cells assessed as cell viability at 20 uM incubated for 48 hrs by MTT assay; assay type: toxicity, cell-based; conditions: 3t3-l1, 48 h
[13] = system: 3T3-L1; experiment: Inhibition of adipogenesis in mouse 3T3-L1 cells assessed as downregulation of FASN expression at 10 uM measured at upto 3 days by immunoblotting analysis; assay type: functional, cell-based; conditions: time <= 3.0 day
[14] = system: 3T3-L1; experiment: Induction of cell cycle arrest in mouse 3T3-L1 cells assessed as reduction in cyclin D1 level at 10 uM incubated for 16 to 24 hrs by immunoblotting analysis; assay type: functional, cell-based; conditions: time 16-24 hrs
[15] = system: Syrian golden hamster; experiment: Anti-dyslipidemic activity in HFD-induced Golden Syrian hamster model assessed as decrease in eWAT accumulation at 100 mg/kg, po administered for 7 days; assay type: functional, organism-based; conditions: Mesocricetus auratus, time 7.0 day
[16] = system: 3T3-L1; experiment: Cytotoxicity against mouse 3T3-L1 cells assessed as cell viability at 10 uM incubated for 48 hrs by MTT assay; assay type: toxicity, cell-based; conditions: 3t3-l1, 48 h
[17] = system: 3T3-L1; experiment: Inhibition of adipogenesis in mouse 3T3-L1 cells assessed as downregulation of FABP4 expression at 10 uM measured at upto 5 days by immunoblotting analysis; assay type: functional, cell-based; conditions: time <= 5.0 day
[18] = system: 3T3-L1; experiment: Anti-adipogenic activity in mouse 3T3-L1 cells at 20 uM relative to control; assay type: functional; conditions: time 72 hrs
[19] = system: Syrian golden hamster; experiment: Anti-dyslipidemic activity in HFD-induced Golden Syrian hamster model assessed as decrease in CEBPalpha level at 100 mg/kg, po administered for 7 days by Western blot analysis; assay type: functional, organism-based; conditions: Mesocricetus auratus, time 7.0 day
[20] = system: 3T3-L1; experiment: Anti-adipogenic activity in mouse 3T3-L1 cells assessed as increase in beta-catenin mRNA expression at 10 uM incubated for 16 to 24 hrs; assay type: functional, cell-based; conditions: time 16-24 hrs
[21] = Toxicity in Golden Syrian hamster assessed as reduction in LDL level in serum at 100 mg/kg, po administered for 7 days; assay type: organism-based, Mesocricetus auratus; conditions: in vivo, 168 h, time 7 day
[22] = Clearance in Golden Syrian hamster at 100 mg/kg, po measured upto 24 hrs by LC-MS/MS analysis; assay type: ADME, organism-based, Mesocricetus auratus; conditions: in vivo
[23] = system: 3T3-L1; experiment: Induction of cell cycle arrest in mouse 3T3-L1 cells assessed as reduction in number of cells at G1 phase at 10 uM incubated for 16 to 24 hrs by flow cytometry analysis; assay type: functional, cell-based; conditions: time 16-24 hrs
[24] = system: 3T3-L1; experiment: Anti-adipogenic activity in mouse 3T3-L1 cells assessed as reduction in lipid accumulation at 10 uM measured at upto 7 days; assay type: functional, cell-based; conditions: time <= 7.0 day
[25] = system: 3T3-L1; experiment: Inhibition of adipogenesis in mouse 3T3-L1 cells assessed as downregulation of FASN expression at 10 uM measured at upto 5 days by immunoblotting analysis; assay type: functional, cell-based; conditions: time <= 5.0 day
[26] = system: 3T3-L1; experiment: Anti-adipogenic activity in mouse 3T3-L1 cells assessed as reduction in lipid accumulation at 10 uM in presence of FH535 by microscopic analysis; assay type: functional, cell-based
[27] = system: 3T3-L1; experiment: Anti-adipogenic activity in mouse 3T3-L1 cells assessed as increase in GATA2 mRNA expression by measuring fold change at 10 uM incubated for 16 to 24 hrs; assay type: functional; conditions: time 16-24 hrs
[28] = system: 3T3-L1; experiment: Inhibition of adipogenesis in mouse 3T3-L1 cells assessed as downregulation of PPARgamma expression at 10 uM measured at upto 7 days by immunoblotting analysis; assay type: functional, cell-based; conditions: time <= 7.0 day
[29] = system: 3T3-L1; experiment: Inhibition of adipogenesis in mouse 3T3-L1 cells assessed as downregulation of CEBPalpha expression at 10 uM measured at upto 5 days by immunoblotting analysis; assay type: functional, cell-based; conditions: time <= 5.0 day
[30] = Toxicity in Golden Syrian hamster assessed as reduction in adipocyte hypertrophy at 100 mg/kg, po administered for 7 days; assay type: organism-based, Mesocricetus auratus; conditions: in vivo, 168 h, time 7 day
[31] = system: 3T3-L1; experiment: Induction of cell cycle arrest in mouse 3T3-L1 cells assessed as reduction in CDK2 level at 10 uM incubated for 16 to 24 hrs by immunoblotting analysis; assay type: functional, cell-based; conditions: time 16-24 hrs
[32] = Tmax in Golden Syrian hamster at 100 mg/kg, po measured upto 24 hrs by LC-MS/MS analysis; assay type: ADME, organism-based, Mesocricetus auratus; conditions: in vivo
[33] = system: 3T3-L1; experiment: Inhibition of adipogenesis in mouse 3T3-L1 cells assessed as downregulation of PPARgamma expression at 10 uM measured at upto 5 days by immunoblotting analysis; assay type: functional, cell-based; conditions: time <= 5.0 day
[34] = system: 3T3-L1; experiment: Induction of cell cycle arrest in mouse 3T3-L1 cells assessed as reduction in percentage of cells at G1 phase at 10 uM incubated for 16 to 24 hrs by flow cytometry analysis; assay type: functional, cell-based; conditions: time 16-24 hrs
[35] = system: 3T3-L1; experiment: Anti-adipogenic activity in mouse 3T3-L1 cells assessed as reduction in lipid accumulation at 10 uM; assay type: functional
[36] = system: 3T3-L1; experiment: Cytotoxicity against mouse 3T3-L1 cells assessed as cell viability at 30 uM incubated for 48 hrs by MTT assay; assay type: toxicity, cell-based; conditions: 3t3-l1, 48 h
[37] = Toxicity in Golden Syrian hamster assessed as body weight gain at 100 mg/kg, po administered for 7 days; assay type: organism-based, Mesocricetus auratus; conditions: in vivo, 168 h, time 7 day
[38] = system: 3T3-L1; experiment: Anti-adipogenic activity in mouse 3T3-L1 cells assessed as increase in GSK3beta mRNA expression at 10 uM incubated for 16 to 24 hrs; assay type: functional, cell-based; conditions: time 16-24 hrs
[39] = system: 3T3-L1; experiment: Anti-adipogenic activity in MDI-induced mouse 3T3-L1 cells assessed as suppression of adipogenesis at 0.3 uM by oil red O staining based analysis; assay type: functional, cell-based; conditions: time 72.0 hrs
[40] = system: 3T3-L1; experiment: Inhibition of adipogenesis in mouse 3T3-L1 cells assessed as downregulation of CEBPalpha expression at 10 uM measured at upto 7 days by immunoblotting analysis; assay type: functional, cell-based; conditions: time <= 7.0 day
[41] = system: 3T3-L1; experiment: Anti-adipogenic activity in mouse 3T3-L1 cells assessed as suppression of adipogenesis at 1 uM by oil red O staining based analysis; assay type: functional, cell-based

## Cc1ccc(/C=C/c2ccc(-c3cc(C(=O)O)c4cc(F)ccc4n3)cc2)cc1
[1]
  MRT: 2.89 h
[2]
  Activity: Non-toxic
[3]
  inhibition: Active
[4]
  inhibition: Active
[5]
  Activity: Active
[6]
  inhibition: Active
[7]
  Activity: Non-toxic
[8]
  Vd: 14.79 L/kg
[9]
  Activity: Active
[10]
  AUC at 24 h: 35700 ng·h/mL
[11]
  Activity: Active
[12]
  Activity: Non-toxic
[13]
  inhibition: Active
[14]
  Activity: Active
[15]
  Activity: Active
[16]
  Activity: Non-toxic
[17]
  inhibition: Active
[18]
  Activity: 64%
[19]
  Activity: Active
[20]
  Activity: Active
[21]
  Activity: Non-toxic
[22]
  CL/F: 46.8 mL/min/kg
[23]
  Activity: Active
[24]
  Activity: Active
[25]
  inhibition: Active
[26]
  Activity: Active
[27]
  fold change (FC): 10
[28]
  inhibition: Active
[29]
  inhibition: Active
[30]
  Activity: Non-toxic
[31]
  Activity: Active
[32]
  Tmax: 0.25 h
[33]
  inhibition: Active
[34]
  Activity: Active
[35]
  inhibition at 10 µM: ~50%
[36]
  Activity: Toxic
[37]
  Activity: Non-toxic
[38]
  Activity: Active
[39]
  Activity: Active
[40]
  inhibition: Active
[41]
  Activity: Active
